Measurements reported in PubChem BioAssay (NCI).
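Five concentrations, 48 hours, 96-well plates. Abbreviation: GI50, concentration required for 50% inhibition of growth. TGI marks complete inhibition of growth.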

What was measured:
Assay in all cases: NCI anticancer screen, dose series, 48 h
HS 578T breast = tested on: HS 578T breast
IGROV1 ovarian = tested on: IGROV1 ovarian
A549 NSCLC = tested on: A549 NSCLC
KM12 colon = tested on: KM12 colon
T-47D breast = tested on: T-47D breast
RXF 393 renal = tested on: RXF 393 renal
DU-145 prostate = tested on: DU-145 prostate
SR leukemia = tested on: SR leukemia
MCF7 breast = tested on: MCF7 breast
UACC-257 melanoma = tested on: UACC-257 melanoma
RPMI-8226 leukemia = tested on: RPMI-8226 leukemia
OVCAR-3 ovarian = tested on: OVCAR-3 ovarian
OVCAR-8 ovarian = tested on: OVCAR-8 ovarian
U251 CNS = tested on: U251 CNS
MALME-3M melanoma = tested on: MALME-3M melanoma
SK-OV-3 ovarian = tested on: SK-OV-3 ovarian
HL-60(TB) leukemia = tested on: HL-60(TB) leukemia
HOP-62 NSCLC = tested on: HOP-62 NSCLC
NCI/ADR-RES ovarian = tested on: NCI/ADR-RES ovarian
K-562 leukemia = tested on: K-562 leukemia
SK-MEL-28 melanoma = tested on: SK-MEL-28 melanoma
A498 renal = tested on: A498 renal
SN12C renal = tested on: SN12C renal
ACHN renal = tested on: ACHN renal
PC-3 prostate = tested on: PC-3 prostate
SF-539 CNS = tested on: SF-539 CNS
SW-620 colon = tested on: SW-620 colon
CAKI-1 renal = tested on: CAKI-1 renal
NCI-H522 lung = tested on: NCI-H522 lung
COLO 205 colon = tested on: COLO 205 colon
786-0 renal = tested on: 786-0 renal
OVCAR-4 ovarian = tested on: OVCAR-4 ovarian
UO-31 renal = tested on: UO-31 renal
LOX IMVI melanoma = tested on: LOX IMVI melanoma
UACC-62 melanoma = tested on: UACC-62 melanoma
HCT-116 colon = tested on: HCT-116 colon
TK-10 renal = tested on: TK-10 renal
HCT-15 colon = tested on: HCT-15 colon
CCRF-CEM leukemia = tested on: CCRF-CEM leukemia
MDA-MB-435 = tested on: MDA-MB-435
SNB-19 CNS = tested on: SNB-19 CNS
MDA-MB-231 breast = tested on: MDA-MB-231 breast
NCI-H226 lung = tested on: NCI-H226 lung
M14 melanoma = tested on: M14 melanoma
SF-295 CNS = tested on: SF-295 CNS
HT29 colon = tested on: HT29 colon
SK-MEL-5 melanoma = tested on: SK-MEL-5 melanoma
NCI-H23 lung = tested on: NCI-H23 lung
HCC-2998 colon = tested on: HCC-2998 colon
MOLT-4 leukemia = tested on: MOLT-4 leukemia
SF-268 CNS = tested on: SF-268 CNS
OVCAR-5 ovarian = tested on: OVCAR-5 ovarian
SK-MEL-2 melanoma = tested on: SK-MEL-2 melanoma
BT-549 breast = tested on: BT-549 breast
SNB-75 CNS = tested on: SNB-75 CNS
NCI-H460 lung = tested on: NCI-H460 lung
HOP-92 NSCLC = tested on: HOP-92 NSCLC

## Cn1cc(C2=C(Sc3ccccc3)C(=O)NC2=O)c2ccccc21
HS 578T breast
  GI50: > 18.2 µM
  TGI: > 25 µM
IGROV1 ovarian
  GI50: 10.5 µM
  TGI: > 25 µM
A549 NSCLC
  GI50: > 22.4 µM
  TGI: > 25 µM
KM12 colon
  GI50: > 25 µM
  TGI: > 25 µM
T-47D breast
  GI50: 7.56 µM
  TGI: > 17.2 µM
RXF 393 renal
  GI50: 7.2 µM
  TGI: > 17.6 µM
DU-145 prostate
  GI50: 13.8 µM
  TGI: > 25 µM
SR leukemia
  GI50: 9.81 µM
  TGI: > 25 µM
MCF7 breast
  GI50: 7.83 µM
  TGI: > 20.6 µM
UACC-257 melanoma
  GI50: > 12 µM
  TGI: > 21.2 µM
RPMI-8226 leukemia
  GI50: 9.19 µM
  TGI: > 25 µM
OVCAR-3 ovarian
  GI50: 9.57 µM
  TGI: > 22.5 µM
OVCAR-8 ovarian
  GI50: > 14.2 µM
  TGI: > 25 µM
U251 CNS
  GI50: > 25 µM
  TGI: > 25 µM
MALME-3M melanoma
  GI50: > 13.2 µM
  TGI: > 20.2 µM
SK-OV-3 ovarian
  GI50: > 25 µM
  TGI: > 25 µM
HL-60(TB) leukemia
  GI50: 8.4 µM
  TGI: 23.5 µM
HOP-62 NSCLC
  GI50: > 25 µM
  TGI: > 25 µM
NCI/ADR-RES ovarian
  GI50: > 25 µM
  TGI: > 25 µM
K-562 leukemia
  GI50: 12.9 µM
  TGI: > 25 µM
SK-MEL-28 melanoma
  GI50: > 12.8 µM
  TGI: > 22.7 µM
A498 renal
  GI50: > 23.1 µM
  TGI: > 25 µM
SN12C renal
  GI50: > 14.9 µM
  TGI: > 25 µM
ACHN renal
  GI50: 6.23 µM
  TGI: > 17.3 µM
PC-3 prostate
  GI50: > 25 µM
  TGI: > 25 µM
SF-539 CNS
  GI50: > 25 µM
  TGI: > 25 µM
SW-620 colon
  GI50: 9.69 µM
  TGI: > 16.5 µM
CAKI-1 renal
  GI50: > 18.1 µM
  TGI: > 25 µM
NCI-H522 lung
  GI50: 3.29 µM
  TGI: 8.44 µM
COLO 205 colon
  GI50: > 16.2 µM
  TGI: > 25 µM
786-0 renal
  GI50: > 16.4 µM
  TGI: > 25 µM
OVCAR-4 ovarian
  GI50: > 18.3 µM
  TGI: > 25 µM
UO-31 renal
  GI50: 8.84 µM
  TGI: > 14.3 µM
LOX IMVI melanoma
  GI50: 4.7 µM
  TGI: 10.2 µM
UACC-62 melanoma
  GI50: > 13.7 µM
  TGI: > 25 µM
HCT-116 colon
  GI50: 7.41 µM
  TGI: > 16.9 µM
TK-10 renal
  GI50: > 13.6 µM
  TGI: > 20.4 µM
HCT-15 colon
  GI50: 7.87 µM
  TGI: > 19.1 µM
CCRF-CEM leukemia
  GI50: 7.7 µM
  TGI: > 25 µM
MDA-MB-435
  GI50: 10 µM
  TGI: > 25 µM
SNB-19 CNS
  GI50: > 25 µM
  TGI: > 25 µM
MDA-MB-231 breast
  GI50: 12.1 µM
  TGI: > 25 µM
NCI-H226 lung
  GI50: > 25 µM
  TGI: > 25 µM
M14 melanoma
  GI50: 24.2 µM
  TGI: > 25 µM
SF-295 CNS
  GI50: > 25 µM
  TGI: > 25 µM
HT29 colon
  GI50: > 18.7 µM
  TGI: > 25 µM
SK-MEL-5 melanoma
  GI50: > 15.1 µM
  TGI: > 25 µM
NCI-H23 lung
  GI50: > 22.2 µM
  TGI: > 25 µM
HCC-2998 colon
  GI50: > 12.3 µM
  TGI: > 18.2 µM
MOLT-4 leukemia
  GI50: 7.9 µM
  TGI: > 25 µM
SF-268 CNS
  GI50: > 15.2 µM
  TGI: > 25 µM
OVCAR-5 ovarian
  GI50: > 25 µM
  TGI: > 25 µM
SK-MEL-2 melanoma
  GI50: > 13.6 µM
  TGI: > 21.8 µM
BT-549 breast
  GI50: 9.49 µM
  TGI: > 20.7 µM
SNB-75 CNS
  GI50: > 25 µM
  TGI: > 25 µM
NCI-H460 lung
  GI50: > 25 µM
  TGI: > 25 µM
HOP-92 NSCLC
  GI50: 24.5 µM
  TGI: > 25 µM
